This experiment relates to Hepatitis B Virus (HBV) in human HBV producer cell line of HepG2, 2.2.15. As to conditions: 100 μM compound, 2.2.15 cells. On the procedure: Antiviral Activity Against Hepatitis B Virus (HBV)
The human HBV producer cell line of HepG2, 2.2.15, described and characterized by Sells et al., PNAS 84:1005, 1987 and J. Virol. […] This cell line was utilized in vitro to identify compounds with anti-HBV activity.
Supernatant media containing extracellular virion DNA (Dane particles) were harvested on days three, six and ten, treated with proteinase K (1 mg/mL) and sodium dodecyl sulfate (1%), and incubated at 50° C. for one hour. DNA was extracted with equal volumes of phenol followed by chloroform and then precipitated by ammonium acetate and propanol. The DNA precipitate was dissolved and collected on nitrocellulose using the procedure of Schleicher and Schuell (S & S, 10 Optical Ave., Keene, N.H. 03431, Publication No. 700, 1987), and treated as described by Southern, J. Mol. Biol. 98:503, 1975. Cells were harvested, and the intracellular DNA was obtained after cell lysis with guanidine isothiocyanate. The intracellular DNA was handled in the same manner as the extracellular DNA. After precipitation by ammonium acetate and propanol, the intracellular DNA precipitate was dissolved, cut by restriction endonuclease, Hind III, applied to agarose gel and then treated as described by Southern to determine the quantity of replicative intermediate forms.

[1] abbreviates: analysis 24 hours following the 10th day of treatment, duplicate cultures, experiments A and B.

Where “and” joins values, the source holds several entries; their conditions need not be identical. Equal values may be shown once.

The values that follow come from US7053100B2, “Therapeutic nucleosides” (priority 1991, dated 2006).

Regarding `Nc1nc(=O)n([C@@H]2CS[C@H](CO)O2)cc1F` (racemic) [cis-1-(2-(Hydroxymethyl)-1,3-oxathiolan-5-yl)-5-fluoro-cytosine], the “HBV DNA in Culture Medium, Day 0” value (Day 0, zero = undetectable, sensitivity cutoff 0.1 pg/mL) is 90 pg/mL. Where the note is “Day 10, zero = undetectable, sensitivity cutoff 0.1 pg/mL”, the “HBV DNA in Culture Medium, Day 10” value is listed as 0 pg/mL. For the same compound, under setting [1], the “Intracellular HBV DNA, Monomer” value was 0.8 pg/μg cell DNA and 0.7 pg/μg cell DNA; the “Intracellular HBV DNA, Replicative intermediate” value is 1 pg/μg cell DNA and 2 pg/μg cell DNA.
